# Measurements published in patent US20200022957A1, “KINASE AND UBIQUITIN LIGASE INHIBITORS AND USES THEREOF” (ALDA S.R.L., priority 2015, published 2020).
# Peptide text beside a SMILES is read from it. * marks the point of attachment. Cbz = O=C(OCc1ccccc1)*
# How the values were obtained:
# [1] = tested on: ATP7B H1069Q; experiment: Morphological assay of ATP7B H1069Q exit from ER to Golgi in HeLa cells (fluorescence microscopy); assay type: cell-based, human; conditions: HeLa cells expressing ATP7B H1069Q-GFP; 24 h
# Experimental: (§1) Cells were transfected with ATP7B-WT-GFP or ATP7B-H1069Q-GFP, incubated overnight with 200 μM BCS and/or drugs. Fixed cells were further labeled for TGN46 to mark and visualize the Golgi area under a confocal microscope. Under low copper conditions ATP7B-WT traffics to the Golgi from the ER, while ATP7B-H1069Q is retained within the ER. If the drug treatments induce the rescue of trafficking from the ER to the Golgi, the ATP7B-H1069Q-GFP fluorescence in the Golgi area increases. This is measured by quantifying (in 10 different microscopy fields in 100 cells) the increased in fluorescence of ATP7BWT-GFP or ATP7BH1069Q-GFP in the Golgi area (marked by TGN46) and normalizing this value to total cell fluorescence
# CFBE or HeLa cells (in case of ATP7B) were transfected with constructs encoding the indicated mutant proteins and treated with JNKi II for 48 h.
# [2] = tested on: proteasome; experiment: Proteasome ZsProsensor-1 fluorescence in CFBE cells; assay type: cell-based, human; conditions: MG132 20 μg/ml for 3 h, positive control
# Experimental: CFBE cells treated with MLK3 or JNK2 siRNA for 72 h were transfected with Proteasome ZsProsensor-1 for the final 24 h, and the levels Proteasome ZsProsensor-1 monitored by fluorescence microscopy. Treatment with MG132 (20 μg/ml for 3 h), a proteasomal inhibitor, was used as a positive control.
# [3] = tested on: ATP7B H1069Q; experiment: Traffic-based screening of ATP7B H1069Q-GFP rescue in HEPG2 cells; assay type: cell-based, human; conditions: HEPG2 cells expressing ATP7B H1069Q-GFP; 24 h
# Experimental: (§2) Transiently ATP7B H1069Q-GFP expressing HeLa cells (A), HEPG2 cells and (C) human primary hepatocytes (E) treated with the inhibitors for 24 hours, cells are processed for immunofluorescence assay to measure the arrival of the ATP7B wt and H1069Q mutant from the ER to Golgi compartment. A, C, E) Normalized Golgi fluorescence of ATP7B is measured and plotted (n >50 cells). B, D, F) EC50 and recue effect (%) compared to the level ATP7B WT Golgi fluorescence calculated from (A), (C) and (E) respectively. […] All the inhibitor drugs except SB202190 are in clinical trial for treatment of various other diseases.
# as §1, with “cell fluorescence […]” for “cell fluorescence”
# [4] = tested on: ATP7BH1069Q; experiment: Copper estimation in HepG2 cells overexpressing ATP7BH1069Q; assay type: cell-based, human; conditions: 1 μM, 24 hours, 200 μM copper sulphate for the last 2 hours
# Experimental: FIG. 14: The VX-745 and BIRB-796 correctors reduce Copper levels in cells expressing ATP7BH1069Q mutant. HepG2 cells overexpressing indicated ATP7B constructs were incubated with 1 μM each of VX-745, BIRB-796 for 24 hours, for the last 2 hours of incubation with the inhibitors 200 μM copper sulphate is added to the cells with or without 100 μM BCS (copper chelator) as indicated. Cells were incubated with HBSS for 3 hours before lysed and used for copper estimation. Fold change in copper normalized to control is plotted (n=4). Both VX-745 and BIRB-796 reduced Copper levels in ATP7BH1069Q expressing cells (BCS is used in the assay as a control for the sensitivity of the assay).
# Cells are lysed in RIPA buffer (150 mM NaCl, 1% Triton X-100, 0.5% deoxycholic acid, 0.1% SDS, 20 mM Tris-HCl, pH 7.4). 500 μg of total protein lysate in 100 μl is taken for copper estimation using Copper assay kit (MAK127 sigma-aldrich) according to the manufacturer's protocol.
# ATP7B protein functions in the excretion of copper out of cells and tissue. As ATP7B H1069Q trafficking to the plasma membrane is impaired, the cells cannot excrete the copper, which leads to higher level of intracellular copper. If the corrector drugs promote the correct localization of the mutant, then the copper should be excreted, leading to lower intracellular levels.
# [5] = tested on: ATP7B H1069Q; experiment: Traffic-based screening of ATP7B H1069Q-GFP rescue in human primary hepatocytes; assay type: cell-based; conditions: human primary hepatocytes expressing ATP7B H1069Q-GFP; 24 h
# Experimental: as §2
# as §1, with “cell fluorescence […]” for “cell fluorescence”
# [6] = tested on: ATP7BH1069Q; experiment: Immunofluorescence assay for correction of ATP7B: cells with ATP7BH1069Q signal in the ER, HeLa cells; assay type: cell-based, human; conditions: 24 h, SB202190 5 μM, VX-745 1 μM, SP600125 2 μM, Oxozeaenol 5 μM, 100 μM CuSO4 2 h
# Experimental: (A) HeLa cells were infected with Ad-ATP7BWT-GFP (Chesi et al., 2016) or Ad-ATP7BH1069Q-GFP, incubated overnight with 200 μM BCS, and incubated for an additional 2 h with 100 μM CuSO4. In response to Cu, ATP7BWT traffics from the Golgi to PM and vesicle, while ATP7BH1069Q are retained within the ER under high Cu conditions. Addition of p38 inhibitor SB202190 (5 μM), VX-745(1 μM), JNK inhibitor SP600125 (2 μM) and Oxozeaenol (5 μM) (as indicated in corresponding panels) to the cells 24 h corrects ATP7BH1069Q from the ER to PM and vesicles (arrows) (B) Cells were treated as in panel A. The percentage of the cells (average±SD, n=50 fields) with an ATP7B signal in the ER, were calculated.
# Cells were fixed with 4% paraformaldehyde in 0.2 M HEPES for 10 mins, permeabilized, labeled with primary and secondary antibodies, and examined with a ZEISS LSM 700 confocal microscope equipped with a 63×1.4 numerical aperture oil objective. The cells were scored based on the disappearance of ATP7B from the ER.
# [7] = tested on: F508del-CFTR; experiment: F508del-CFTR proteostasis by western blotting (ER band B / Golgi-processed band C) in CFBE cells; assay type: cell-based, human; conditions: for levels of band B and band C of F508del-CFTR: concentration series; for decrease in levels of F508del-CFTR: rapid, abolished by MLK3 downregulation
# Experimental: Cells were washed three times in ice-cold Dulbecco's phosphate-buffered saline, and lysed in RIPA buffer (150 mM NaCl, 1% Triton X-100, 0.5% deoxycholic acid, 0.1% SDS, 20 mM Tris-HCl, pH 7.4), supplemented with protease inhibitor cocktail and phosphatase inhibitors. The lysates were clarified by centrifugation at 15000×g for 15 min, and the supernatants were resolved by SDS-PAGE. BCA Protein Assay kit (Pierce) was used to quantitate protein levels before loading. The western blots were decorated with appropriate antibodies and developed using ECL. The blots were then exposed to x-ray films and exposure time was varied to obtain optimal signal. The x-ray films were then scanned and the bands were quantitated using ImageJ gel-analysis tool. The protein concentration and the exposures used for quantitation of the blots were optimized to be in a linear range of detection.
# Inventors then turned to experimental validation of the role of the CORE genes in the regulation of F508del-CFTR proteostasis. Experiments were carried out using a characterised biochemical assay that detects both the amount of core-glycosylated CFTR trapped in the ER (band B with Western blotting) and the amount of CFTR fully glycosylated in the Golgi (most of which presumably resides at the PM; band C with Western blotting).
# [8] = tested on: JNK; experiment: phospho-c-jun levels by western blotting as a measure of JNK inhibition in CFBE cells; assay type: cell-based, human; conditions: 24 h, oxozeaenol 5 μM
# Experimental: A. CFBE cells were treated with indicated JNK inhibitors for 24 h and processed for western blotting. The levels of phospho-c-jun as a measure of JNK inhibition was monitored. […] B. CFBE cells were treated with TAK1 or MLK3 siRNA as indicated and changes in F508del-CFTR proteostasis were monitored by western blotting.
# C. CFBE cells were treated with 5 μM oxozeaenol for 48 h, or with MLK3 siRNA, or with both, and the correction of the F508del-CFTR folding/trafficking defect was monitored by changes in the levels of band C. There was no additive effect observed with the combination of MLK3 downregulation and oxozeaenol treatment. The quantitated band C levels are expressed as mean±SD (n>3). D. CFBE cells were treated with 5 μM oxozeaenol for 24 h, and the activity of the JNK pathway was measured by western blotting for phospho c-jun levels and F508del-CFTR. […] E. CFBE cells were treated with flunarizine (at concentrations 6.25-50 μM) targeting the CAMKK2 pathway for 48 h and the effect on F508del-CFTR proteostasis measured by western blotting. Treatment with flunarizine increased the levels of band C of F508del-CFTR. […] F. CFBE cells transiently transfected with the P-glycoprotein mutant (P-gp DY490), the NCC mutant (R948X), or the hERG mutant (G601S) were treated with JNKi II for 24 h, and the effect of the drug on their proteostasis monitored by western blotting. […]
# [9] = tested on: F508del-CFTR; conditions: primary human bronchial epithelial cells (Trzcinska-Daneluti et al. 2012); cited from earlier work
compound,measurement,setting,value
C=C(C)[C@@H]1CCC(C)=C[C@H]1c1c(O)cc(CCCCC)cc1O [Cannabidiol],rescue of ATP7B H1069Q localization (ER exit to the Golgi compartment),[1],potently rescue
CC(C)C[C@@H](C=O)NC(=O)[C@H](CC(C)C)NC(=O)[C@H](CC(C)C)NC(=O)OCc1ccccc1 [MG132] (Cbz-Leu-Leu-Leu-aldehyde),fluorescence levels of ZsProsensor-1 compared to untreated cells,[2],increases
Cc1ccc(-n2nc(C(C)(C)C)cc2NC(=O)Nc2ccc(OCCN3CCOCC3)c3ccccc23)cc1 [BIRB-796],rescue of ATP7B H1069Q (ER to Golgi),[3],rescue H1069Q potently
same,Copper levels in ATP7BH1069Q expressing cells,[4],reduced
same,rescue of ATP7B H1069Q localization (ER exit to the Golgi compartment),[1],potently rescue
same,rescue of ATP7B H1069Q (ER to Golgi),[5],rescue H1069Q potently
O=c1ncn2nc(Sc3ccc(F)cc3F)ccc2c1-c1c(Cl)cccc1Cl [VX-745],rescue of ATP7B H1069Q (ER to Golgi),[3],rescue H1069Q potently
same,Copper levels in ATP7BH1069Q expressing cells,[4],reduced
same,percentage of the cells exhibiting ATP7BH1069Q in the ER,[6],reduced
same,rescue of ATP7B H1069Q (ER to Golgi),[5],rescue H1069Q potently
Cc1ccc(NC(=O)C2(c3ccc4c(c3)OC(F)(F)O4)CC2)nc1-c1cccc(C(=O)O)c1 [VX-809],level of ER-localised band B of F508del-CFTR,[7]; 48 h,limited increase
same,increase of band C levels over control,[7]; VX-809 as reference for correction,4-5 fold
O=C(O)c1ccc2c3c1cccc3c(=O)n1c3ccccc3nc21 [STO-609],correction of F508del-CFTR (levels of band C),[7]; 48 h,did not show any effect
N#Cc1c(NC(=O)c2cccc3ccccc23)sc2c1CCCC2 [JNKi IX],levels of band B and band C of F508del-CFTR,[7]; 48 h,robust increases
CC(O)C(=O)O.CN1CCN(c2ccc3nc(-c4c(N)c5c(F)cccc5[nH]c4=O)[nH]c3c2)CC1 [Dovitinib lactate],levels of band B and band C of F508del-CFTR,[7]; 48 h,robust increases
TGF-β,decrease in levels of F508del-CFTR,[7],50%
O=[N+]([O-])c1cnc(Sc2nc3ccccc3s2)s1 [JNKi XI],levels of band B and band C of F508del-CFTR,[7]; 48 h,robust increases
COc1ccc(CCN(C)CCCC(C#N)(c2ccc(OC)c(OC)c2)C(C)C)cc1OC (stereo not drawn) [verapamil],correction of F508del-CFTR (levels of band C),[7]; 48 h,did not show any effect
OO [H2O2],F508del-CFTR levels,"[7]; H2O2 at non-toxic concentrations, within a few minutes",marked drop
C=C(c1ccc(C(=O)O)cc1)c1cc2c(cc1C)C(C)(C)CCC2(C)C [Bexarotene],levels of band B and band C of F508del-CFTR,[7]; 48 h,robust increases
same,rescue of ATP7B H1069Q localization (ER exit to the Golgi compartment),[1],potently rescue
COC(=O)[C@@]1(O)C[C@H]2O[C@]1(C)n1c3ccccc3c3c4c(c5c6ccccc6n2c5c31)C(=O)NC4 [K252a],correction of F508del-CFTR (levels of band C),[7]; 48 h,no clear effects
Cc1ccc(Nc2nccc(N(C)c3ccc4c(C)n(C)nc4c3)n2)cc1S(N)(=O)=O [Pazopanib],levels of band B and band C of F508del-CFTR,[7]; 48 h,robust increases
CC(=O)Nc1ccc(C(=O)NC(C)(C)C)cc1 [CPI-1189],rescue of ATP7B H1069Q localization (ER exit to the Golgi compartment),[1],potently rescue
"COc1cc(O)c2c(c1)/C=C/C[C@H](O)[C@H](O)C(=O)/C=C\C[C@H](C)OC2=O [Oxozeaenol, (5Z)-7-oxozeaenol]",phospho-c-jun levels,[8],reduced
same,levels of band B and band C of F508del-CFTR,[7]; 48 h,markedly increased
same,percentage of the cells exhibiting ATP7BH1069Q in the ER,[6],reduced
same,correction of the F508del-CFTR proteostasis defect,[9],effective
TNF-α,decrease in levels of F508del-CFTR,[7],50%
O=C1c2c(O)ccc(O)c2C(=O)c2c(NCCNCCO)ccc(NCCNCCO)c21 [mitoxantrone],levels of band B and band C of F508del-CFTR,[7]; 48 h,potently increase
Fc1ccc(C(c2ccc(F)cc2)N2CCN(C/C=C/c3ccccc3)CC2)cc1 [Flunarizine],correction of F508del-CFTR (levels of band C),[7]; 48 h,increased
Cc1cc(Nc2cc(N3CCN(C)CC3)nc(/C=C/c3ccccc3)n2)n[nH]1 [ENMD-2076],rescue of ATP7B H1069Q localization (ER exit to the Golgi compartment),[1],potently rescue
Oc1ccc(-c2nc(-c3ccncc3)c(-c3ccc(F)cc3)[nH]2)cc1 [SB202190],percentage of the cells exhibiting ATP7BH1069Q in the ER,[6],reduced
